The record followed here is US20250313554A1, “PTPN2 INHIBITORS” (Ness Therapeutics, Inc., priority 2022, published 2025).

The target in data set [1] is GST-tagged PTPN2 protein (Homo sapiens (Human), UniProt P17706). Kind of data set: Primary assay of PTPN2 enzymatic activity inhibition (DiFMUP fluorescence). It counts as biochemical. To be noted: PTPN2 0.004 ng/μL, DiFUMP substrate 2 μM, 60 min at rt. As for the experimental part: Compound activity was determined using GST-tagged PTPN2 protein (Cat #31592, ActiveMotif) (SEQ ID NO: 1) in an in vitro enzymatic reaction. The enzymatic reaction was carried out in assay buffer (50 mM HEPES Na salt pH 7.2-7.4, 2 mM EDTA, 100 mM NaCl, 52 ng/μL BSA, and 6 mM DTT). The compounds were dispensed on a 384 well Diamond Well Plate (Axigen, Cat #P-384-120SQ-C-S) using the Biomek FX liquid handling system at 100× solutions of compounds in DMSO. 2×PTPN2 (final concentration 0.004 ng/μL) was prepared in 1× Assay buffer and 25 μL of mixture per well was added into Reaction plate (Optiplate, black, Perkin Elmer, Cat #6007270). Add 25 μL of 1× buffer to Ctrl- (Substrate w/o PTPN2) wells followed by centrifugation at 100 g for 1 min. Next step the Compounds were added to Reaction plate using Biomek station via following steps: 3 μl of 100× compounds (in DMSO) were mixed with 27 μL of Assay Buffer, then 5 μL of this mixture was added to Reaction plate with 25 μL of PTPN2 Mix. Plates were centrifuged for 1 min at 100 g and incubated for another 10 min at rt. Finally, 20 μL of 2.5× Substrate (DiFUMP, Invitrogen™ Cat #D6567) mix was added into appropriate wells of Reaction plate to the final concentration of 2 μM, plate was centrifuged at 100 g for 1 min followed by incubation at rt for 60 min, and the Fluorescence Intensity was measured using a Microplate Reader (ClarioStar Plus, excitation 360 nm, emission 450 nm). The % inhibition was then used to calculate the Ki values. The Ki values are shown in Table A, wherein “A” corresponds to Ki<1.0 nm, “B” corresponds to 1.0 nm≤Ki<5.0 nm, “C” corresponds to 5.0 nm≤Ki<10.0 nm, “D” corresponds to 10.0 nm≤Ki<50.0 nm, and “E” corresponds to 50.0 nm≤Ki<100.0 nm, and “F” corresponds to 100.0 nm≤Ki.

Data set [2] relates to B16F10 mouse melanoma cells. Briefly: Tumor cells B16F10 cellular growth IFNγ-induced inhibition assay (CellTiter-Glo). Type of data set: cell-based. To be noted: for IC50: B16-F10, 72 h. On the procedure: B16F10 mouse melanoma cells (ATCC Cat #CRL-6475) were seeded at a density of 500 cells per well in a 384-well clear bottom plate (Corning Cat #3712, Corning, N.Y.) in 40 μL total volume of DMEM+10% FBS (PanEco Cat #C420, Russia and Sigma Cat #F4135, St. Louis, MO). Cells were allowed to adhere overnight at 37° C., 5% CO2. On the following day, 250× solutions of compounds in DMSO (Sigma Cat #D2650) were prepared into Cmpnds plate (Diamond Well Plate, Axigen, Cat #P-384-120SQ-C-S) (final concentration of 1×) and DMSO only controls were included. Dilution Plate (Diamond Well Plate (Axigen, Cat #P-384-120SQ-C-S) was prepared by adding 49 μL of culture medium per well: half of the plate with culture medium only, half with culture medium+IFNγ (5 ng/ml). A 1 μL aliquot of 250× compounds (Cmpnds plate) was added to 49 μL of culture medium (Dilution plate), then a 10 μL aliquot of the mixture was transferred to Reaction plate with 40 μL of cells followed by centrifugation at 240 g for 1 min. After 3 days of incubation, 10 μL of CellTiter-Glo (Promega) was added to the cells, plates were centrifuged at 240 g for 1 min, and luminescence signal was measured. For each compound, the percent growth inhibition at every compound dose level was calculated relative to the “DMSO/with IFNγ” control and used to determine the IC50.
Background: In ATP-based viability assays light output follows the ATP content of the culture.

Data set [3] can be described thus: Pharmacokinetic (PK) study in mice, oral bioavailability. Type of data set: in vivo, Male CD-1 mice. To be noted: 10 mg/kg PO vs 2 mg/kg IV, 10% Ethanol, 30% PEG-400, 60% Phosal-50PG, form Suspension. As for the experimental part: Pharmacokinetic (PK) study in mice: Male CD-1 mice obtained from Charles River GmbH (Sulzfeld, Germany) with body weight ranging between 30 g to 40 g were used in the PK studies. Group of 12 mice were given a 2 mg/kg intravenous bolus (IV) dose of test article as a solution in 20% HP-beta-CD, and another group of 9 mice were given a 10 mg/kg oral (PO) dose of test article as a solution or suspension in [10% ethanol, 30% PEG-400 and 60% Phosal-50PG]. Blood samples (˜200 μL per time point) were collected twice from each animal—from orbital sinus and by cardiopuncture at 0.083, 0.25, 0.5, 1, 2, 4, 8 and 24 hours after IV administration, and at 0.5, 1, 2, 4, 8 and 24 hours after PO administration, 3 mice/time point. Blood samples were collected in tubes with Na-EDTA 0.5 M solution (1:10) and centrifuged for 10 min at 10,000 rpm at 2 to 8° C. to harvest plasma. Plasma samples were stored at −80° C. until LC/MS/MS analysis. Concentration in each plasma sample was determined by a non-validated LC/MS/MS. Data is acquired using multiple reaction monitoring (MRM) with specific transitions monitored for each compound. Pharmacokinetic Analysis: PK parameters were calculated by non-compartmental methods as described in Gibaldi and Perrier (Gibaldi and Perrier, 1982) using Phoenix® WinNonlin® version 6.3 (Certara L.P.). Following PO administration, percent bioavailability (Fabs) was determined by dividing the dose normalized mean area under the plasma concentration-time curve, extrapolated to the last time point (AUClast) obtained following PO dose by the mean dose normalized AUC of the animals dosed by IV injection. All PK parameters are presented as mean±standard deviation (SD). PK studies were conducted in mice for exemplary compounds of Formula (I). The percent bioavailability (Fabs) values determined are listed in Table C for certain compounds, together with the dosage, vehicle and form used in the studies.

Setting [4] is: B16F10, no IFNγ, 3 days of incubation, read-out: IC50 no IFNγ.
The mark [5] stands for this setting: B16F10, with IFNγ, 3 days of incubation, read-out: IC50 + IFNγ.
Where [6] appears, read: B16-F10, B16F10, 100 μM compound, no IFNγ, read-out: % Growth Inhibition at 100 μM no IFNγ.
[7] abbreviates: B16-F10, B16F10, 100 μM compound, with IFNγ, read-out: % Growth Inhibition at 100 μM + IFNγ.

Read-outs that look alike come from different tables or passages of the source.

What is called Ki is a dissociation constant, usually derived from enzyme kinetics or from competition with a known ligand. High values mean weaker binding, low ones tighter binding. Broadly, the IC50 is the concentration that inhibits the measured activity by half. One may read the inhibition as the relative decrease from the control value, in per cent.

Chain of GST-tagged PTPN2 protein (P17706 whole entry): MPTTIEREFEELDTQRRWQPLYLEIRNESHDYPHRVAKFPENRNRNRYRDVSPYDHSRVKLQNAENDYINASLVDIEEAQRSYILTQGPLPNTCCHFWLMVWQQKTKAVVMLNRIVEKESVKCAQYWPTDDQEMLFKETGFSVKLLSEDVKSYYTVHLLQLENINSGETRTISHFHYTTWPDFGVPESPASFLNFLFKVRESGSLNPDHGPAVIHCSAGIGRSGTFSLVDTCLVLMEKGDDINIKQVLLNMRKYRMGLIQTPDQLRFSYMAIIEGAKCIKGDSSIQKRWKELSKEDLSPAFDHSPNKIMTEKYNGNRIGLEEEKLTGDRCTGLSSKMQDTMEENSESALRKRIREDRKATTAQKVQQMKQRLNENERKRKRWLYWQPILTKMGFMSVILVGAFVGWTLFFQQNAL

`CC(C)Cc1c(O)nc(Nc2cc(O)c(N3CC(=O)NS3(=O)=O)c(F)c2)nc1O` [Compound 13, 5-[4-[(4,6-dihydroxy-5-isobutyl-pyrimidin-2-yl)amino]-2-fluoro-6-hydroxy-phenyl]-1,1-dioxo-1,2,5-thiadiazolidin-3-one] had a Ki in data set [1] of 0.001 to 0.005 µM. Also, the IC50 was > 100 µM in data set [2] (setting [4]) and 10 to 50 µM in data set [2] (setting [5]). For the same compound, the inhibition at 100 µM in data set [2] (setting [6]) lay within 10 to 50%; in data set [2] (setting [7]) it was 50 to 75%.
In the same order, the values of `O=C1CN(c2c(O)cc(NC3=NCCCN3)cc2F)S(=O)(=O)N1` [Compound 2, 5-[2-fluoro-6-hydroxy-4-(1,4,5,6-tetrahydropyrimidin-2-ylamino)phenyl]-1,1-dioxo-1,2,5-thiadiazolidin-3-one] are 0.005 to 0.01 µM, > 100 µM, < 5 µM, 10 to 50% and 75 to 100%.
In the same order, the values of `CC(C)Cc1cnc(Nc2cc(O)c(N3CC(=O)NS3(=O)=O)c(F)c2)nc1O` [Compound 12, 5-[2-fluoro-6-hydroxy-4-[(4-hydroxy-5-isobutyl-pyrimidin-2-yl)amino]phenyl]-1,1-dioxo-1,2,5-thiadiazolidin-3-one] are < 0.001 µM, > 100 µM, 10 to 50 µM, 10 to 50% and 50 to 75%.
As to `CC(C)Cc1c(O)nc(Nc2cc(O)c(N3CC(=O)NS3(=O)=O)c(F)c2)nc1Cl` [Compound 42, 5-[4-[(4-chloro-6-hydroxy-5-isobutyl-pyrimidin-2-yl)amino]-2-fluoro-6-hydroxy-phenyl]-1,1-dioxo-1,2,5-thiadiazolidin-3-one], the Ki in data set [1] is < 0.001 µM. Also, the figures for the IC50 in data set [2] (setting [4]) and in data set [2] (setting [5]) were > 100 µM and 10 to 50 µM, respectively. The inhibition at 100 µM in data set [2] (setting [6]) lay within 10 to 50%; in data set [2] (setting [7]), 75 to 100%.
For the compound `Cc1ccnc(Nc2cc(O)c(N3CC(=O)NS3(=O)=O)c(F)c2)n1` [Compound 4, 5-[2-fluoro-6-hydroxy-4-[(4-methylpyrimidin-2-yl)amino]phenyl]-1,1-dioxo-1,2,5-thiadiazolidin-3-one], the Ki in data set [1] is ≥ 0.1 µM. Besides, the IC50 in data set [2] (read-out: IC50 + IFNγ (μM)) and in data set [2] (read-out: IC50 no IFNγ (μM)) was > 100 µM throughout. The inhibition at 100 µM was 10 to 50% in data set [2] (B16-F10, read-out: % Growth Inhibition at 100 μM + IFNγ) and 10 to 50% in data set [2] (B16-F10, read-out: % Growth Inhibition at 100 μM no IFNγ).
In data set [1], `Cc1cc(O)nc(Nc2cc(O)c(N3CC(=O)NS3(=O)=O)c(F)c2)n1` [Compound 10, 5-[2-fluoro-6-hydroxy-4-[(4-hydroxy-6-methyl-pyrimidin-2-yl)amino]phenyl]-1,1-dioxo-1,2,5-thiadiazolidin-3-one] registered a Ki of 0.001 to 0.005 µM. The figures for the IC50 in data set [2] (setting [4]) and in data set [2] (setting [5]) were > 100 µM and < 5 µM, respectively. The inhibition at 100 µM in data set [2] (setting [6]) was 10 to 50%; in data set [2] (setting [7]), 75 to 100%. In data set [3], the “Fabs, %” value was determined as 2.7%.
With `O=C1CN(c2c(O)cc(Nc3nc(O)c4ccccc4n3)cc2F)S(=O)(=O)N1` [Compound 8, 5-[2-fluoro-6-hydroxy-4-[(4-hydroxyquinazolin-2-yl)amino]phenyl]-1,1-dioxo-1,2,5-thiadiazolidin-3-one], in data set [1], the inhibition constant (Ki) was < 0.001 µM. Further, the IC50 in data set [2] (setting [4]) is > 100 µM; in data set [2] (setting [5]), 10 to 50 µM. The results for the inhibition at 100 µM in data set [2] (setting [6]) and in data set [2] (setting [7]) were 10 to 50% and 50 to 75%, respectively.
On the same counts, the results for `O=C1CN(c2c(O)cc(Nc3ncc(Cl)cn3)cc2F)S(=O)(=O)N1` [Compound 5, 5-[4-[(5-chloropyrimidin-2-yl)amino]-2-fluoro-6-hydroxy-phenyl]-1,1-dioxo-1,2,5-thiadiazolidin-3-one] are 0.05 to 0.1 µM, > 100 µM, > 100 µM, 10 to 50% and 10 to 50%.
In the same order, the values of `O=C1CN(c2c(O)cc(Nc3nc(O)c4c(n3)CCCC4)cc2F)S(=O)(=O)N1` [Compound 39, 5-[2-fluoro-6-hydroxy-4-[(4-hydroxy-5,6,7,8-tetrahydroquinazolin-2-yl)amino]phenyl]-1,1-dioxo-1,2,5-thiadiazolidin-3-one] are < 0.001 µM, > 100 µM, 10 to 50 µM, 10 to 50% and 50 to 75%.
On the same counts, the results for `CCCc1c(C)nc(Nc2cc(O)c(N3CC(=O)NS3(=O)=O)c(F)c2)nc1O` [Compound 21, 5-[2-fluoro-6-hydroxy-4-[(4-hydroxy-6-methyl-5-propyl-pyrimidin-2-yl)amino]phenyl]-1,1-dioxo-1,2,5-thiadiazolidin-3-one] are 0.001 to 0.005 µM, > 100 µM, 10 to 50 µM, 10 to 50% and 50 to 75%.
In the case of `Cc1cnc(Nc2cc(O)c(N3CC(=O)NS3(=O)=O)c(F)c2)nc1O` [Compound 6, 5-[2-fluoro-6-hydroxy-4-[(4-hydroxy-5-methyl-pyrimidin-2-yl)amino]phenyl]-1,1-dioxo-1,2,5-thiadiazolidin-3-one], in data set [1], the Ki is < 0.001 µM. The results for the 50% inhibitory concentration (IC50) in data set [2] (setting [4]) and in data set [2] (setting [5]) were > 100 µM and 50 to 100 µM, respectively. Besides, the inhibition at 100 µM is < 10% in data set [2] (setting [6]) and 50 to 75% in data set [2] (setting [7]).
